The source of these data is PubChem BioAssay AID330 (DTP/NCI, 2004).

In the experiment the test system is P388 leukemia ip, CD2F1 mice, survival T/C. The experiment can be described thus: NCI In Vivo Anticancer Drug Screen. Data for tumor model P388 Leukemia (intraperitoneal) in CD2F1 (CDF1) mice. Particulars: endpoint: median survival time, higher = longer survival. Put shortly:
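Mice carrying the transplanted tumor received test compound or vehicle. Survival was recorded in each group, and the value is the treated-group measurement divided by that of the vehicle-treated control group.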

Where [1] appears, read: dose: 3.12 mg/kg/injection, schedule: Q01DX009 (ip), vehicle: saline.
The mark [2] stands for this setting: dose: 6.25 mg/kg/injection, schedule: Q01DX009 (ip), vehicle: saline.
Setting [3] is: dose: 12.5 mg/kg/injection, schedule: Q01DX009 (ip), vehicle: saline.
Setting [4] is: dose: 60.0 mg/kg/injection, schedule: Q01DX005 (ip), vehicle: saline with Tween-80.
Setting [5] is: dose: 120.0 mg/kg/injection, schedule: Q01DX005 (ip), vehicle: saline with Tween-80.
[6] abbreviates: dose: 240.0 mg/kg/injection, schedule: Q01DX005 (ip), vehicle: saline with Tween-80.
Setting [7] is: dose: 50.0 mg/kg/injection, schedule: Q01DX009 (ip), vehicle: saline with Tween-80.
Setting [8] is: dose: 100.0 mg/kg/injection, schedule: Q01DX009 (ip), vehicle: saline with Tween-80.

Values joined by “and” are separate entries in the source; they are usually repeats but may differ in a detail not shown here. Equal entries are not always repeated. Toxic doses and inconclusive results are not listed.

On to `CCCCCNS(=O)(=O)c1ccc(C)cc1`, for which the T/C (dose: 50.0 mg/kg/injection, schedule: Q01DX009 (ip), vehicle: saline + alcohol) was 107 % of control; the T/C (dose: 100.0 mg/kg/injection, schedule: Q01DX009 (ip), vehicle: saline + alcohol) was 107 % of control; the T/C (dose: 200.0 mg/kg/injection, schedule: Q01DX009 (ip), vehicle: saline + alcohol) is 118 % of control; the T/C (dose: 400.0 mg/kg/injection, schedule: Q01DX009 (ip), vehicle: saline + alcohol) was 101 % of control.

Take `C=C(C)/C(=C/C(=O)OCC)Sc1ccccc1`: the T/C (dose: 100.0 mg/kg/injection, schedule: Q04DX003 (ip), vehicle: Klucel (hydroxypropylcellulose) (HPC)) is 106 % of control; the T/C (dose: 200.0 mg/kg/injection, schedule: Q04DX003 (ip), vehicle: Klucel (hydroxypropylcellulose) (HPC)) is 106 % of control; the T/C (dose: 400.0 mg/kg/injection, schedule: Q04DX003 (ip), vehicle: Klucel (hydroxypropylcellulose) (HPC)) was 102 % of control.

For the compound `CCOC(=O)C1C(c2ccc(OC)cc2)c2cc3c(cc2OC1(C)N1CCCC1)OCO3` (stereo not drawn), the T/C by setting is: (dose: 60.0 mg/kg/injection, schedule: Q01DX005 (ip), vehicle: Klucel (hydroxypropylcellulose) (HPC)) 98 % of control; (dose: 120.0 mg/kg/injection, schedule: Q01DX005 (ip), vehicle: Klucel (hydroxypropylcellulose) (HPC)) 96 % of control; (dose: 240.0 mg/kg/injection, schedule: Q01DX005 (ip), vehicle: Klucel (hydroxypropylcellulose) (HPC)) 93 % of control.

Regarding `OC(/C=C\CC(O)(C(F)(F)F)C(F)(F)F)(C(F)(F)F)C(F)(F)F`, the T/C under setting [1] is 100 % of control; the T/C under setting [2] is 106 % of control; the T/C (dose: 12.5 mg/kg/injection, schedule: Q01DX009 (ip), vehicle: saline with Tween-80) is 91 % of control; the T/C under setting [3] is 93 % of control.

`O=NNc1ccc(Sc2ccc3ccccc3c2)cn1`: the T/C runs as follows: under setting [1], 114 % of control and 122 % of control; under setting [2], 120 % of control; under setting [3], 114 % of control.

`COc1ccc(C2CC(=O)N(c3nccc(C)n3)C(=O)C2)cc1`: the T/C (dose: 100.0 mg/kg/injection, schedule: Q04DX003 (ip), vehicle: saline) was 98 % of control; the T/C (dose: 200.0 mg/kg/injection, schedule: Q04DX003 (ip), vehicle: saline) is 99 % of control; the T/C (dose: 400.0 mg/kg/injection, schedule: Q04DX003 (ip), vehicle: saline) is 94 % of control.

`CCCCC(NC(=O)C(C)N)C(=O)O` (stereo not drawn): the T/C (dose: 50.0 mg/kg/injection, schedule: Q01DX009 (ip), vehicle: Klucel (hydroxypropylcellulose) (HPC)) was 98 % of control; the T/C (dose: 100.0 mg/kg/injection, schedule: Q01DX009 (ip), vehicle: Klucel (hydroxypropylcellulose) (HPC)) was 98 % of control; the T/C (dose: 200.0 mg/kg/injection, schedule: Q01DX009 (ip), vehicle: Klucel (hydroxypropylcellulose) (HPC)) was 95 % of control; the T/C (dose: 400.0 mg/kg/injection, schedule: Q01DX009 (ip), vehicle: Klucel (hydroxypropylcellulose) (HPC)) was 101 % of control.

As for `CC(C)OCc1cn[nH]n1`, the T/C is, setting by setting: under setting [4], 100 % of control; under setting [5], 97 % of control; under setting [6], 103 % of control.

In the case of `O=C(Nc1nncs1)c1ccncc1`, the T/C is, setting by setting: (dose: 50.0 mg/kg/injection, schedule: Q04DX002 (ip), vehicle: saline with Tween-80) 104 % of control; (dose: 100.0 mg/kg/injection, schedule: Q04DX002 (ip), vehicle: saline with Tween-80) 112 % of control; (dose: 200.0 mg/kg/injection, schedule: Q04DX002 (ip), vehicle: saline with Tween-80) 157 % of control; (dose: 400.0 mg/kg/injection, schedule: Q04DX002 (ip), vehicle: saline with Tween-80) 153 % of control and 164 % of control.

Turning to `COC(=O)C1=CO[C@@H](OC2OC(CO)C(O)C(O)C2O)[C@@H]2[C@@H](C)[C@@H](O)[C@@H](O)[C@]12O` (stereo partly drawn), the T/C is, setting by setting: (dose: 25.0 mg/kg/injection, schedule: Q01DX005 (ip), vehicle: saline) 102 % of control; (dose: 50.0 mg/kg/injection, schedule: Q01DX005 (ip), vehicle: saline) 102 % of control; (dose: 100.0 mg/kg/injection, schedule: Q01DX005 (ip), vehicle: saline) 100 % of control; (dose: 200.0 mg/kg/injection, schedule: Q01DX005 (ip), vehicle: saline) 108 % of control.

Take `CS(=O)(=O)OCCN(CCOS(C)(=O)=O)c1ccc(C=Nc2ccc3oc(=O)ccc3c2)cc1`: the T/C reads like this: under setting [7], 104 % of control; under setting [8], 113 % of control; (dose: 132.0 mg/kg/injection, schedule: Q04DX003 (ip), vehicle: saline with Tween-80) 150 % of control; (dose: 300.0 mg/kg/injection, schedule: Q04DX003 (ip), vehicle: saline with Tween-80) 122 % of control.

In the case of `O=C1NC(=O)/C(=C\c2ccco2)S1`, the T/C is 98 % of control (dose: 6.25 mg/kg/injection, schedule: Q01DX009 (ip), vehicle: Klucel (hydroxypropylcellulose) (HPC)); 89 % of control (dose: 12.5 mg/kg/injection, schedule: Q01DX009 (ip), vehicle: Klucel (hydroxypropylcellulose) (HPC)); 94 % of control (dose: 25.0 mg/kg/injection, schedule: Q01DX009 (ip), vehicle: Klucel (hydroxypropylcellulose) (HPC)).

As for `CCCCOC(=O)/C=C/C(=O)N1CC(C)N(C(=O)/C=C/C(=O)OCCCC)CC1C` (stereo not drawn), the T/C runs as follows: (dose: 50.0 mg/kg/injection, schedule: Q01DX005 (ip), vehicle: Klucel (hydroxypropylcellulose) (HPC)) 105 % of control; (dose: 100.0 mg/kg/injection, schedule: Q01DX005 (ip), vehicle: Klucel (hydroxypropylcellulose) (HPC)) 100 % of control; (dose: 200.0 mg/kg/injection, schedule: Q01DX005 (ip), vehicle: Klucel (hydroxypropylcellulose) (HPC)) 100 % of control.

For `O=C(O)CC(CSCP(=O)(O)O)C(=O)O` (stereo not drawn), the T/C (dose: 50.0 mg/kg/injection, schedule: Q01DX005 (ip), vehicle: suspension in saline) was 102 % of control; the T/C (dose: 100.0 mg/kg/injection, schedule: Q01DX005 (ip), vehicle: suspension in saline) is 91 % of control; the T/C (dose: 200.0 mg/kg/injection, schedule: Q01DX005 (ip), vehicle: suspension in saline) is 89 % of control.

For `COc1ccc2c(c1)c(-c1cc3ccccc3oc1=O)cn2C(=O)c1ccc(Cl)cc1`, the T/C runs as follows: under setting [4], 105 % of control; under setting [5], 102 % of control; under setting [6], 106 % of control.

On to `Cc1cc2oc(=O)c3c(c2c(O)c1CN1CCCC1)CCCC3`, for which the T/C (dose: 16.0 mg/kg/injection, schedule: Q01DX009 (ip), vehicle: Klucel (hydroxypropylcellulose) (HPC)) was 97 % of control; the T/C (dose: 32.0 mg/kg/injection, schedule: Q01DX009 (ip), vehicle: Klucel (hydroxypropylcellulose) (HPC)) was 101 % of control; the T/C (dose: 64.0 mg/kg/injection, schedule: Q01DX009 (ip), vehicle: Klucel (hydroxypropylcellulose) (HPC)) was 103 % of control; the T/C (dose: 128.0 mg/kg/injection, schedule: Q01DX009 (ip), vehicle: Klucel (hydroxypropylcellulose) (HPC)) was 97 % of control.

For the compound `Nc1nc2[nH]ncc2c(=O)[nH]1`, the T/C runs as follows: (dose: 25.0 mg/kg/injection, schedule: Q01DX009 (ip), vehicle: saline with Tween-80) 90 % of control; under setting [7], 100 % of control; (dose: 50.0 mg/kg/injection, schedule: Q04DX003 (ip), vehicle: saline with Tween-80) 104 % of control; under setting [8], 90 % of control; (dose: 100.0 mg/kg/injection, schedule: Q04DX003 (ip), vehicle: saline with Tween-80) 109 % of control.

As to `Oc1ccc(C2COc3c(ccc(O)c3O)C2)cc1` (stereo not drawn), the T/C reads like this: under setting [4], 98 % of control; under setting [5], 100 % of control; under setting [6], 101 % of control.

As for `CN(C)c1ccc2cc(-n3nnc4cc([N+](=O)[O-])ccc43)c(=O)oc2c1`, the T/C was 100 % of control (dose: 12.5 mg/kg/injection, schedule: Q01DX005 (ip), vehicle: saline with Tween-80); 99 % of control (dose: 25.0 mg/kg/injection, schedule: Q01DX005 (ip), vehicle: saline with Tween-80); 90 % of control (dose: 50.0 mg/kg/injection, schedule: Q01DX005 (ip), vehicle: saline with Tween-80).

With `COc1ccc2c(c1)CCn1c(C)c(COC(=O)NC(C)C)c(COC(=O)NC(C)C)c1-2`, the T/C was 153 % of control and 160 % of control (dose: 12.5 mg/kg/injection, schedule: Q01DX009 (ip), vehicle: distilled water + Tween-80); 153 % of control and 164 % of control (dose: 25.0 mg/kg/injection, schedule: Q01DX009 (ip), vehicle: distilled water + Tween-80).
